One may read the Ki as a dissociation constant, usually derived from enzyme kinetics or from competition with a known ligand. As a reminder, the EC50 is the midpoint of the concentration-response curve. A lower EC50 goes with an effect from little substance.

The record followed here is ChEMBL document CHEMBL1127980, “A convenient synthesis of 2-amino-2-oxazolines and their pharmacological evaluation at cloned human adrenergic receptors” (Bioorg Med Chem Lett, 1994).

Test [1] has as its target T1, Alpha-2A adrenergic receptor (Homo sapiens, UniProt P08913).
T1 sequence (P08913 whole entry): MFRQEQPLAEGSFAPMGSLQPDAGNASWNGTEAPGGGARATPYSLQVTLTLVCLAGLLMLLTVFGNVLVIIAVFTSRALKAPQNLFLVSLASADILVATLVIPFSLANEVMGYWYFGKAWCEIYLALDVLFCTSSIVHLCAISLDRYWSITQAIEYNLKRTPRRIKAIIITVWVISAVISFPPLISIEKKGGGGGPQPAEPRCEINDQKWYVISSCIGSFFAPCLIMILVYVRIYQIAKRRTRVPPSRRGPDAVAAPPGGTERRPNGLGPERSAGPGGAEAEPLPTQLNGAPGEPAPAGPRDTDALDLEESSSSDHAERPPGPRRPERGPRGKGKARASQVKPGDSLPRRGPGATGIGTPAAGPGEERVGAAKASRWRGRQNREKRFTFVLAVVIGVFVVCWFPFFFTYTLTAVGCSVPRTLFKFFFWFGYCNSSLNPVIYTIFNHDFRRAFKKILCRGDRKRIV
Put plainly: Binding affinity towards human Alpha-2A adrenergic receptor by the displacement of [3H]rauwolscine. Background: In a radioligand displacement assay an active substance lowers the binding of a labelled ligand.

Test [2] has as its target T1, Alpha-2A adrenergic receptor. Put plainly: Agonistic activity towards human Alpha-2A adrenergic receptor was measured as ability to inhibit forskolin-stimulated synthesis of cyclic adenosine monophosphate. The format is functional.
Test [3] addresses T2, Alpha-1D adrenergic receptor (Homo sapiens, UniProt P25100).
T2 sequence (P25100 whole entry): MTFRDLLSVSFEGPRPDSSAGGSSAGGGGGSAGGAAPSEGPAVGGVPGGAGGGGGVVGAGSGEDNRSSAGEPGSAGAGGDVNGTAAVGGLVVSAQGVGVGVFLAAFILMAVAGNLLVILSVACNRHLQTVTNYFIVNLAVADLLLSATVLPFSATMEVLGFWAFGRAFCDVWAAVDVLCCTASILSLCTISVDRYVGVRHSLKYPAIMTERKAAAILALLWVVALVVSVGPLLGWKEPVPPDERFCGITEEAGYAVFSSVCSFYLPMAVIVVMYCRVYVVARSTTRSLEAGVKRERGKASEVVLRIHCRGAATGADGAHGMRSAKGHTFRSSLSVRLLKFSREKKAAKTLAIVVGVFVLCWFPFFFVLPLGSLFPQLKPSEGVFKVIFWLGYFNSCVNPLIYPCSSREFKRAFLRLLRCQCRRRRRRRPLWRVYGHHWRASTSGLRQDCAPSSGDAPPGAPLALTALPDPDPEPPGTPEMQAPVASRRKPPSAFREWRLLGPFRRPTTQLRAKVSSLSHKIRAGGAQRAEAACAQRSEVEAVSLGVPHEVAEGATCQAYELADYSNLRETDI
Put plainly: Binding affinity towards human Alpha-1A adrenergic receptor by the displacement of [3H]prazosin.

Test [4] concerns the target T3, Alpha-2B adrenergic receptor (Homo sapiens, UniProt P18089).
T3 sequence (P18089 whole entry): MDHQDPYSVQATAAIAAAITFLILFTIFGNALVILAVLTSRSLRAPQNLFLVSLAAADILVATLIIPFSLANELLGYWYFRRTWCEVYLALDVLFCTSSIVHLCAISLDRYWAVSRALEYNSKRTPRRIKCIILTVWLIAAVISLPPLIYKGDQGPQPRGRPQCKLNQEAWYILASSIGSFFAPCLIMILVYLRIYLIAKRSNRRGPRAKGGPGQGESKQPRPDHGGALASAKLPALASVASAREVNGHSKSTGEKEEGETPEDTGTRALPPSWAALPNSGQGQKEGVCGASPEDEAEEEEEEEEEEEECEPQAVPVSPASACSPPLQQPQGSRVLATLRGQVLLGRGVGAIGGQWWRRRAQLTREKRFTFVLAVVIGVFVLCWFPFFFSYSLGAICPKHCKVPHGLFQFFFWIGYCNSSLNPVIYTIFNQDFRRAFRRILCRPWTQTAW
Put plainly: Agonistic activity towards human Alpha-2B adrenergic receptor was measured as ability to inhibit forskolin-stimulated synthesis of cyclic adenosine monophosphate. The format is functional.

The target of test [5] is T3, Alpha-2B adrenergic receptor. Put plainly: Binding affinity towards human Alpha-2B adrenergic receptor by the displacement of [3H]rauwolscine.
The target of test [6] is T4, Alpha-1A adrenergic receptor (Homo sapiens, UniProt P35348).
T4 sequence (P35348 whole entry): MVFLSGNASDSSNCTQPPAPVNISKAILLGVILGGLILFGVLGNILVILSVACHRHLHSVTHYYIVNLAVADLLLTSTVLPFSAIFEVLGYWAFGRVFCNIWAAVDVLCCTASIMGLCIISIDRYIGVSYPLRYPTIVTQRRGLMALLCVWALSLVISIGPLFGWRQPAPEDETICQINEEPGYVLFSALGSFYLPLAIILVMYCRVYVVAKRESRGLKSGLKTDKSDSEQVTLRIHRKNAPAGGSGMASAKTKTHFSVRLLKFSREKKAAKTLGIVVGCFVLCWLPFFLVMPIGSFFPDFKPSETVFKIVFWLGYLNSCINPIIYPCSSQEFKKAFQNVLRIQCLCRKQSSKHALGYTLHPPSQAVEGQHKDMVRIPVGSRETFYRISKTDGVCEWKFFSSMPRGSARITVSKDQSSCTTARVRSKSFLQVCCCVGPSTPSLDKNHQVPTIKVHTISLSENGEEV
Put plainly: Binding affinity towards human Alpha-1C adrenergic receptor by the displacement of [3H]prazosin.

Test [7] deals with T5, Alpha-2C adrenergic receptor (Homo sapiens, UniProt P18825).
T5 sequence (P18825 whole entry): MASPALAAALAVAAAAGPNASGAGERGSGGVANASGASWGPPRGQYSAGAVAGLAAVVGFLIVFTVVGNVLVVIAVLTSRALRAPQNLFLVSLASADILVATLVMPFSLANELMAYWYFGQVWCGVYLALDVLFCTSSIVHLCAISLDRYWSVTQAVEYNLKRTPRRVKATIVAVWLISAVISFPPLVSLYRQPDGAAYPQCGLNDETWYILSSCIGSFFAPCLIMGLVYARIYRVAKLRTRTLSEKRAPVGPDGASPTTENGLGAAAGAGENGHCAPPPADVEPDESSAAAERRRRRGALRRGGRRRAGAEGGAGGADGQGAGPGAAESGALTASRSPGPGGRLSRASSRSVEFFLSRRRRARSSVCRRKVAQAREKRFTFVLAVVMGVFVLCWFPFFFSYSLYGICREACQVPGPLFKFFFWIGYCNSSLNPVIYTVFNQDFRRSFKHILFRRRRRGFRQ
Put plainly: Agonistic activity towards human Alpha-2C adrenergic receptor was measured as ability to inhibit forskolin-stimulated synthesis of cyclic adenosine monophosphate. The format is functional.

Test [8] addresses T5, Alpha-2C adrenergic receptor. Put plainly: Binding affinity towards human Alpha-2C adrenergic receptor by the displacement of [3H]rauwolscine.

Regarding `c1ccc2c(c1)CCCC2NC1=NCCCO1` (stereo not given), the Ki in test [1] was 0.0257 µM; in test [3] it was 2.19 µM; in test [5], 0.0251 µM; in test [6], 1.95 µM; in test [8], 0.0851 µM. The EC50 is 0.229 µM in test [2], 0.0347 µM in test [4] and 0.0245 µM in test [7].

In the case of `C1COC(NC(C2CC2)C2CC2)=N1` [RILMENIDINE], the Ki is 0.182 µM in test [1]; 8.91 µM in test [3]; 0.0708 µM in test [5]; 6.03 µM in test [6]; 0.288 µM in test [8]. Further, the results for the concentration for a half-maximal effect (EC50) in test [2], in test [4] and in test [7] were 0.275 µM, 0.724 µM and 0.191 µM, respectively.

On to `CCC[C@H]1CCCCC1NC1=NCCO1` (stereo not given in full), for which the inhibition constant Ki was 0.00295 µM in test [1]; 0.562 µM in test [3]; 0.00589 µM in test [5]; 0.141 µM in test [6]; 0.0245 µM in test [8]. Besides, the values for the EC50 in test [2], in test [4] and in test [7] were 0.00162 µM, 0.00933 µM and 0.00407 µM, respectively.

With `C1COC(N2CCOCC2)=N1`, the inhibitory constant (Ki) is 16.6 µM in test [1]; 120 µM in test [3]; 11.7 µM in test [5]; 107 µM in test [6]; 16.6 µM in test [8].

Regarding `c1ccc2c(c1)CCCC2NC1=NCCO1` (stereo not given), the inhibition constant (Ki) is 0.00234 µM in test [1]; 0.204 µM in test [3]; 0.00214 µM in test [5]; 0.126 µM in test [6]; 0.012 µM in test [8]. The figures for the EC50 in test [2], in test [4] and in test [7] were 0.00117 µM, 0.00355 µM and 0.00219 µM, respectively.

In the case of `C1CCCC(NC2=NCCO2)CC1`, the Ki in test [1] is 0.00537 µM; in test [3], 3.8 µM; in test [5], 0.00977 µM; in test [6] it was 2 µM; in test [8], 0.0331 µM. In addition, the EC50 in test [2] is 0.038 µM; in test [4], 0.214 µM; in test [7], 0.0776 µM.
